Source: patent EP3183253B1, “SALT OF (R)-3-(4-(7H-PYRROLO [2,3-D]PYRIMIDIN-4-YL)-LH-PYRAZOL-L-YL)-3-CYCLOPENTYLPROPANENITRILE WITH BENZENESULFONIC ACID” (ratiopharm GmbH, priority 2014, dated 2016)

Experiments:
Format in all cases: physicochemical
[1] = pH-dependency of solubility at 37°C; settings: for solubility: 37°C
Text: The intestinal tract obeys different pH ranges, which vary from pH 1 to 2 of the empty stomach, pH 3-5 for stomach filled with chyme, to pH 5-7.5 of the colon.

[2] = Dynamic vapor sorption experiment (hygroscopicity); settings: 25°C, reducing humidity to 0% and increasing to 40%
Procedure: Vapour sorption experiments were performed in the instrument SPSx-1µ (Projekt Messtechnik, Ulm, Germany) at temperature of 25°C and the humidity cycles as shown below.
A dynamic vapor sorption experiment was performed with Ruxolitinib besylate. At a constant temperature of 25°C, the substance was exposed to two cycles of varying relative humidity (rh) (40% → 0% →95% (75% r.h. kept constant for 48h) → 0% →40%). Figure 3a presents the relative weight change as a function of time and relative humidity and in […] changes are illustrated as a function of humidity.

[3] = Storage stability: chemical purity by HPLC/UV; settings: for Chemical purity ([area-%] at λ=230 nm): 40°C/75% rh
Procedure: (§1) Samples were stored in closed and open containers at 25°C/60% rh and at 40°C/75% rh and analyzed after 4, 8 and 12 weeks.
The results of determination of the chemical purity during storage at 40°C/75% rh are summarized. […] Therefore, the analysis of samples, which were stored at 25°C/60% rh, was omitted.

[4] = Storage stability: solid-state stability by XRPD analysis
Procedure: The sample was analyzed on a D8 Advance X-ray powder diffractometer (Bruker-AXS, Karlsruhe, Germany). The sample holder was rotated in a plane parallel to its surface at 20 rpm during the measurement. The raw data were analyzed with the program EVA (Bruker-AXS, Germany). The samples were layered onto a silicon specimen holder.
as §1
The solid-state stability was investigated by XRPD analysis for 25°C/60% rh. The results of evaluation are summarized.

N#CC[C@H](C1CCCC1)n1cc(-c2ncnc3[nH]ccc23)cn1 [Ruxolitinib besylate, Ruxolitinib benzenesulfonate] showed a solubility at 0.5 h ([1]; 0.1m hcl, pH 1.2, 37°C, 0.1M HCl pH1.2, 0.5 h) of 9600 µg/mL, a solubility at 1 h ([1]; 0.1m hcl, pH 1.2, 37°C, 0.1M HCl pH1.2, 1 h) of 9600 µg/mL and a solubility at 24 h ([1]; 0.1m hcl, pH 1.2, 37°C, 0.1M HCl pH1.2, 24 h) of 9300 µg/mL. The solubility at 1 h ([1]; 20mm naoac, pH 4.5, 37°C, 20mM (NaOAc / NaAc) -pH 4.5, 1 h) was 7100 µg/mL, the solubility ([1]; 20mM (NaOAc / NaAc) -pH 4.5, 0.5 h) was 6700 µg/mL and the solubility ([1]; 20mM (NaOAc / NaAc) -pH 4.5, 24 h) was 6100 µg/mL. For the same molecule, the solubility ([1]; 50mM KH2PO4 pH 6.8, 24 h) was 5800 µg/mL, the solubility at 0.5 h ([1]; 50mm kh2po4, pH 6.8, 37°C, 50mM KH2PO4 pH 6.8, 0.5 h) was 6800 µg/mL and the solubility at 1 h ([1]; 50mm kh2po4, pH 6.8, 37°C, 50mM KH2PO4 pH 6.8, 1 h) was 7000 µg/mL. The “weight after desorption and re-sorption (in words)” value [2] was “resulted in the initial starting weight”, the “chemical stability during storage (in words)” value ([3]; 40°C/75% rh, 4, 8 and 12 weeks) was “remained chemically stable” and the “Chemical purity ([area-%] at λ=230 nm)” value ([3]; closed container, 4 weeks) was 98.14% area-%. The “Chemical purity ([area-%] at λ=230 nm)” value ([3]; closed container, 8 weeks) was 98.27% area-%, the “Chemical purity ([area-%] at λ=230 nm)” value ([3]; closed container, 12 weeks) was 98.06% area-% and the “Chemical purity ([area-%] at λ=230 nm)” value ([3]; closed container, t = 00 (= initial)) was 98.16 area-%. The “Chemical purity ([area-%] at λ=230 nm)” value ([3]; open container, 4 weeks) was 98.16% area-%, the “Chemical purity ([area-%] at λ=230 nm)” value ([3]; open container, 8 weeks) was 98.21% area-% and the “Chemical purity ([area-%] at λ=230 nm)” value ([3]; open container, 12 weeks) was 98.22% area-%. For the same molecule, the “Chemical purity ([area-%] at λ=230 nm)” value ([3]; open container, t = 00 (= initial)) was 98.16 area-%, the “stability upon storage (in words)” value ([4]; 25°C and 60% relative humidity (RH), up to at least 12 weeks) was “stable” and the “solid-state stability by XRPD (in words)” value ([4]; 25°C/60% rh, throughout the observation period) was “remained unchanged”.
